Experimental data taken from patent US8680233B2, “Heteropeptides useful for reducing nonspecific adsorption” (Valorisation-Recherche, Limited Partnership, priority 2009, dated 2014).
Numbered stars: 1 amine (or outer) side, 2 acyl side, 3 side chain; on linkers, the order of the positions; unused ones are H or OH. Square brackets hold non-standard residues; d marks the D form. Peptide text beside a SMILES is read from it. azaTyr = O=C(N(Cc1ccc(O)cc1)N[*:1])[*:2]; azaPhe = O=C(N(Cc1ccccc1)N[*:1])[*:2]; azaLeu = CC(C)CN(N[*:1])C(=O)[*:2]; azaGly = NNC(=O)O; Mpa = O=C(O)CCS

Tests used:
[1] = molecular target: recombinant soluble His-tagged CD36 (Homo sapiens, UniProt P16671); assay: SPR screening of peptide ligands on a CD36 functionalized sensor; type: binding; conditions: for Kd: CD36 functionalized sensor, linear Langmuir plot
Sequence of recombinant soluble His-tagged CD36 (P16671 30-439 limits assumed): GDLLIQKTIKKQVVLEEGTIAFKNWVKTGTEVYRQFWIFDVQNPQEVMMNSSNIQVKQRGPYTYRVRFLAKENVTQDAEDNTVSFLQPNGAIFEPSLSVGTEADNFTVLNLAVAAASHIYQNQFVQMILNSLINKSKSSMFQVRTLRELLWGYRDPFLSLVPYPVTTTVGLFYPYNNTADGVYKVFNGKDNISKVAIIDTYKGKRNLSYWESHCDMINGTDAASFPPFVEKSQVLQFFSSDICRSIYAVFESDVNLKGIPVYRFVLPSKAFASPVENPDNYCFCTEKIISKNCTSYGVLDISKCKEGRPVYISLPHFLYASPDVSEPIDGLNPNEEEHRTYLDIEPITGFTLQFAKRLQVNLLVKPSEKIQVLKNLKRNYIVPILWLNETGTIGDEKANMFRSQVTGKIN
Experimental: The SPR sensors for screening small peptidic ligand binding to a recombinant soluble His-tagged CD36 functionalized surfaces were prepared as described above. Five ligands were investigated: EP80317, CP-2B(i), CP-3(iv), CP-2A(v) and DBG-178(27) with concentrations ranging from 30 μM to 100 nM except for EP80317. The latter was used for optimizing the system with solutions ranging from 1 mM to 100 nM. EP80317 (HAIC-2MeDTrp-DLys-Trp-D-Phe-Lys-NH2) is a positive control of known activity, CP-2B(i) (His-DTrp-AzaLeu-Trp-DPhe-Ala-NH2) is a negative control, and CP-3(iv) (Ala-DTrp-Ala-AzaPhe-DPhe-Lys-NH2), CP-2A(v) (His-DTrp-AzaGly-Trp-DPhe-Lys-NH2) and DBG-178(27) (His-DTrp-Ala-azaTyr-DPhe-Lys-NH2) are novel CD36 ligands (see PCT publication No. WO 08/154,738). Another negative control was accomplished by exposing the His-tagged hDHFR functionalized surface to the same concentration of CD36 peptidic ligand. Two different approaches were used to remove the His-tagged CD36-Cu complex from the SPR sensors: concentrated histidine solution or saturated EDTA solution.
This is the case of the CD36-ligand system investigated herein, where the ligands are small peptides of about 800 to 1000 g/mol. Indeed, according to the aforementioned principle, the binding of the small peptides to the CD36 receptor should be close to the limit of detection, thus providing unreliable affinity measurements. […] This could be a consequence of a large conformational change of the CD36 receptor upon binding of specific ligands, thus providing the amplification sufficient for SPR signal detection.
(§1) The SPR setup was used for investigating the structure-activity relationships of various CD36 peptidic ligands. […] The measured KD's were compared to the EC50 values obtained in the activated src-kinase assay following CD36 receptor activation by the tested peptides. […] For the src-kinase cellular assay, the response sensitivity (EC50) for the tested peptides (in decreasing order) was as follows: EP80317>CP-2A(v)>CP-3(iv)>DBG-178(27)>CP-2B(i). With SPR, the binding affinity to CD36, in decreasing order, was: DBG-178(27)>CP-2A(v)>EP80317>CP-3(iv)>CP-2B(i). […] For CD36-peptidic ligands, a correlation appears between the affinity binding of the small peptides for CD36 as determined by SPR and their efficiency to produce a cellular response in the src kinase assay. Thus, SPR appears as a selective and sensitive method to screen for CD36 ligands.

[2] = molecular target: CD36 receptor (Homo sapiens, UniProt P16671); assay: SRC-kinase cellular assay following CD36 receptor activation; type: cell-based; conditions: activation of src-kinases after CD36 receptor activation
Sequence of CD36 receptor (P16671 whole entry): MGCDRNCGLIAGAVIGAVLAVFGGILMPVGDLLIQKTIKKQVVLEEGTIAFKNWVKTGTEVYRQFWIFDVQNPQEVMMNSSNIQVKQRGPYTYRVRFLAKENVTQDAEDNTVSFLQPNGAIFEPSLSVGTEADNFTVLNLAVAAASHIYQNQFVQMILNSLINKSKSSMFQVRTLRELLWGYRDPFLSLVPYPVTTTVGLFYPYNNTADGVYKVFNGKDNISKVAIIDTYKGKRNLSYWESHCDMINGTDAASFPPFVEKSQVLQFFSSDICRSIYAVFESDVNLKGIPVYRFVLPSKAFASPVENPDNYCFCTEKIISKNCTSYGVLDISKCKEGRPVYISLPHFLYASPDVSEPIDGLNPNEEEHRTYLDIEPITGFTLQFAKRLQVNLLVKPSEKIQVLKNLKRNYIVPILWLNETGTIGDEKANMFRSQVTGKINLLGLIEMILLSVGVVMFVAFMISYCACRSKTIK
Excerpt: as §1

[3] = Surface concentration of the peptide monolayer on Au by SPR; type: physicochemical; conditions: peptide SAM on Au SPR sensor; average of four replicates
Experimental: The surface coverage for each monolayer was measured according to the change in response of the SPR sensor in PBS for the bare Au surface relative to the peptide-coated Au surface. To measure the formation of the monolayers, each SPR sensor was mounted on a custom-made SPR instrument in the Kretschmann configuration based on a dove prism with wavelength interrogation as previously described (Bolduc et al., 2009, supra). An Ocean Optics™ USB4000 fibre optic spectrometer ranging from 550 to 850 nm was used to acquire the spectral information processed with Matlab to obtain the SPR sensorgram. A 25 μL Teflon fluidic cell positioned on top of the SPR sensors was used to inject the solutions required to functionalize with the recognition element and detect the analytes of interest. The SPR response was acquired at a frequency of 1 Hz. The s-polarized reference was acquired in PBS buffer before monitoring a 5 minute baseline in p-polarization. PBS was replaced with crude bovine serum (76 mg/mL protein) for 20 minutes and rinsed with PBS for 5 minutes to quantify the amount of non-specifically adsorbed proteins.
The formation of monolayers on Au was measured to ensure that the peptide monolayers are indeed binding to the SPR sensor. The surface concentration of the monolayer provides a measurement of the number of molecules per square cm (i.e. the density of the monolayer at the surface). The surface concentration (Γ) of peptide-like self-assembled monolayers (SAMs) was characterized with the measurement of the SPR response before the formation of the SAMs and after their formation on the Au surface of the SPR sensor. The difference of SPR wavelength (λSPR) between these two measurements increases with the increasing surface concentration of the SAMs following the equation proposed by Jung et al. (Jung, L. S. et al. Langmuir 1998, 14: 5636): Γ=ρ(−0.5/d)ln(1−(ΔλSPRm^−1(ηSAM−ηPBS)^−1)) (eq. 1)

[4] = Advancing contact angle in PBS on peptide SAMs; type: physicochemical; conditions: average of four replicates
[5] = Secondary structure of peptide SAM by FT-IR (mid-IR amide band); type: physicochemical; conditions: peptide SAM on gold-coated SPR sensor
Experimental: Microscope slides (BK7, 22×22 mm) were coated with a 3 nm titanium (Ti) adhesion layer and a 50 nm gold (Au) layer (purity 99.99%, ESPI metals) using a Cressington™ 308R sputter coater. These Au-coated SPR slides were immersed for at least 16 h in a 5 mM peptide solution in absolute ethanol to form a well-ordered monolayer (Masson, J. F. et al. Talanta 2004, 64: 716). Four replicates were prepared for each 3-MPA-peptide. The SAM formed on the SPR sensors was extensively rinsed with DMF and ethanol and dried. The mid-IR spectrum of the peptide monolayers immobilized on the SPR sensors was measured in attenuated total reflectance (ATR). Mid-IR spectra were recorded using a BRUKER TENSOR® 27 equipped with a Ge-ATR module.
The 3D structure of the peptides as SAMs is observed with the amide band visible in FT-IR. Peptides adopting an α-helix configuration are showing a strong amide band at 1645 cm^−1, while peptides auto-assembling in the β-sheet configuration leads to a shifted amide at 1675 cm^−1. Every peptide structure investigated in Table 1 adopted an α-helix configuration except for 3-MPA-HHHDD-OH, as shown in FIG. 3.
Peptides adopt secondary conformation, which plays a significant role in their biological activity. For peptides in solution, the secondary conformation is measured with CD, while peptides immobilized on a surface can be analyzed with mid-IR spectroscopy of the amide bands (Duevel, R. V., Corn, R. M., 1992. Analytical Chemistry 64(4), 337-342; Sakurai, T. et al., 2006. Journal of Peptide Science 12(6), 396-402). As listed in Table II, the secondary structure of most peptides adopted an α-helical conformation, with the exception of 3-MPA-DSDSD-OH, which adopted an extended conformation. As noted above, most peptides in the form of 3-MPA-peptide-OH adopt an α-helical conformation. Generally, mid-IR and CD agreed in the determination of the structures on surfaces and in solution, with the exception of one peptide. […] No relationship between structure and nonspecific adsorption could be established.

[6] = Capillary electrophoresis, global charge of the peptide; type: physicochemical
Experimental: Capillary electrophoresis was performed to determine if this difference of configuration is due to the global charge of the peptide.

Kd [1] [nM]	EC50 [2] [nM]	Compound	Global charge of the peptide [6]	other results
44	26	NCCCC[C@H](NC(=O)[C@@H](Cc1ccccc1)NC(=O)[C@H](Cc1c[nH]c2ccccc12)NC(=O)NNC(=O)[C@@H](Cc1c[nH]c2ccccc12)NC(=O)[C@@H](N)Cc1cnc[nH]1)C(N)=O [CP-2A(v), His-DTrp-AzaGly-Trp-DPhe-Lys-NH2] (H-H[dW][azaGly]W[dF]K-NH2)		
		3-MPA-HHHDD-OH ([Mpa]HHHDD-OH; SMILES O=C(O)C[C@H](NC(=O)[C@H](CC(=O)O)NC(=O)[C@H](Cc1c[nH]cn1)NC(=O)[C@H](Cc1c[nH]cn1)NC(=O)[C@H](Cc1c[nH]cn1)NC(=O)CCS)C(=O)O)	about −1	Surface density ΔΓSAM [3]: 0.230 10^15 molecule/cm^2; Contact angle in PBS θC_PBS [4]: 37.8 °; Secondary Structure FT-IR (SAM) [5]: β-sheet
		3-MPA-HHDDD-OH ([Mpa]HHDDD-OH; SMILES O=C(O)C[C@H](NC(=O)[C@H](CC(=O)O)NC(=O)[C@H](CC(=O)O)NC(=O)[C@H](Cc1c[nH]cn1)NC(=O)[C@H](Cc1c[nH]cn1)NC(=O)CCS)C(=O)O)	about −1	
22	63	C[C@H](NC(=O)[C@@H](Cc1c[nH]c2ccccc12)NC(=O)[C@@H](N)Cc1cnc[nH]1)C(=O)NN(Cc1ccc(O)cc1)C(=O)N[C@H](Cc1ccccc1)C(=O)N[C@@H](CCCCN)C(N)=O [DBG-178(27), His-DTrp-Ala-azaTyr-DPhe-Lys-NH2] (H-H[dW]A[azaTyr][dF]K-NH2)		
		3-MPA-HHHHD-OH ([Mpa]HHHHD-OH; SMILES O=C(O)C[C@H](NC(=O)[C@H](Cc1c[nH]cn1)NC(=O)[C@H](Cc1c[nH]cn1)NC(=O)[C@H](Cc1c[nH]cn1)NC(=O)[C@H](Cc1c[nH]cn1)NC(=O)CCS)C(=O)O)	about −1	
380	44	C[C@H](N)C(=O)N[C@H](Cc1c[nH]c2ccccc12)C(=O)N[C@@H](C)C(=O)NN(Cc1ccccc1)C(=O)N[C@H](Cc1ccccc1)C(=O)N[C@@H](CCCCN)C(N)=O [CP-3(iv), Ala-DTrp-Ala-AzaPhe-DPhe-Lys-NH2] (H-A[dW]A[azaPhe][dF]K-NH2)		
		CC(C)CN(NC(=O)[C@@H](Cc1c[nH]c2ccccc12)NC(=O)[C@@H](N)Cc1c[nH]cn1)C(=O)N[C@@H](Cc1c[nH]c2ccccc12)C(=O)N[C@H](Cc1ccccc1)C(=O)N[C@@H](C)C(N)=O [CP-2B(i), His-DTrp-AzaLeu-Trp-DPhe-Ala-NH2, reference compound] (H-H[dW][azaLeu]W[dF]A-NH2)		Binding affinity to CD36 (in words) ([1]; negative control): low binding affinity
1400	> 10000	CC(C)CN(NC(=O)[C@@H](Cc1c[nH]c2ccccc12)NC(=O)[C@@H](N)Cc1cnc[nH]1)C(=O)N[C@@H](Cc1c[nH]c2ccccc12)C(=O)N[C@H](Cc1ccccc1)C(=O)N[C@@H](C)C(N)=O [CP-2B(i), His-DTrp-AzaLeu-Trp-DPhe-Ala-NH2, reference compound] (H-H[dW][azaLeu]W[dF]A-NH2)		
